# Data taken from PubChem BioAssay (NCI).
#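 96-well plates; 48 h exposure; 5 concentrations. Endpoints by linear interpolation between flanking doses. Not reached: highest tested concentration assigned. Abbreviation: GI50, concentration required for 50% inhibition of growth. TGI denotes the concentration required for complete inhibition of growth.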
# Legend:
# Experiment in all cases: NCI tumour cell line growth inhibition, 48 h
# [1] = system: A498 renal
# [2] = system: HCC-2998 colon
# [3] = system: HOP-62 NSCLC
# [4] = system: PC-3 prostate
# [5] = system: A549 NSCLC
# [6] = system: SK-OV-3 ovarian
# [7] = system: OVCAR-4 ovarian
# [8] = system: SF-268 CNS
# [9] = system: MCF7 breast
# [10] = system: RPMI-8226 leukemia
# [11] = system: SR leukemia
# [12] = system: T-47D breast
# [13] = system: HOP-92 NSCLC
# [14] = system: SF-295 CNS
# [15] = system: BT-549 breast
# [16] = system: KM12 colon
# [17] = system: MALME-3M melanoma
# [18] = system: LOX IMVI melanoma
# [19] = system: ACHN renal
# [20] = system: HL-60(TB) leukemia
# [21] = system: IGROV1 ovarian
# [22] = system: NCI-H23 lung
# [23] = system: SW-620 colon
# [24] = system: DU-145 prostate
# [25] = system: SNB-75 CNS
# [26] = system: UACC-257 melanoma
# [27] = system: HCT-116 colon
# [28] = system: MDA-MB-435
# [29] = system: SN12C renal
# [30] = system: SK-MEL-5 melanoma
# [31] = system: RXF 393 renal
# [32] = system: EKVX NSCLC
# [33] = system: 786-0 renal
# [34] = system: CAKI-1 renal
# [35] = system: COLO 205 colon
# [36] = system: OVCAR-5 ovarian
# [37] = system: K-562 leukemia
# [38] = system: UACC-62 melanoma
# [39] = system: SK-MEL-2 melanoma
# [40] = system: UO-31 renal
# [41] = system: HT29 colon
# [42] = system: MDA-MB-231 breast
# [43] = system: SF-539 CNS
# [44] = system: NCI-H460 lung
# [45] = system: M14 melanoma
# [46] = system: HS 578T breast
# [47] = system: CCRF-CEM leukemia
# [48] = system: U251 CNS
# [49] = system: TK-10 renal
# [50] = system: MOLT-4 leukemia
# [51] = system: NCI-H522 lung
# [52] = system: NCI-H226 lung
# [53] = system: NCI/ADR-RES ovarian
# [54] = system: OVCAR-8 ovarian
# [55] = system: SNB-19 CNS
# [56] = system: HCT-15 colon
# [57] = system: SK-MEL-28 melanoma
compound,measurement,setting,value
CCOc1ccc(NC2=C(Cl)C(=O)c3nc(C)ccc3C2=O)cc1,GI50,[1],1560 nM
same,TGI,[1],5520 nM
same,GI50,[2],1760 nM
same,TGI,[2],3250 nM
same,GI50,[3],1740 nM
same,TGI,[3],3230 nM
same,GI50,[4],1300 nM
same,TGI,[4],2770 nM
same,GI50,[5],2090 nM
same,TGI,[5],4640 nM
same,GI50,[6],11000 nM
same,TGI,[6],30100 nM
same,GI50,[7],1130 nM
same,TGI,[7],2370 nM
same,GI50,[8],1550 nM
same,TGI,[8],3090 nM
same,GI50,[9],1540 nM
same,TGI,[9],3820 nM
same,GI50,[10],1670 nM
same,TGI,[10],5330 nM
same,GI50,[11],1090 nM
same,TGI,[11],> 100000 nM
same,GI50,[12],1010 nM
same,TGI,[12],3910 nM
same,GI50,[13],2020 nM
same,TGI,[13],3510 nM
same,GI50,[14],1860 nM
same,TGI,[14],3430 nM
same,GI50,[15],1430 nM
same,TGI,[15],2800 nM
same,GI50,[16],1440 nM
same,TGI,[16],3070 nM
same,GI50,[17],1650 nM
same,TGI,[17],3160 nM
same,GI50,[18],1060 nM
same,TGI,[18],2330 nM
same,GI50,[19],1570 nM
same,TGI,[19],2920 nM
same,GI50,[20],1470 nM
same,TGI,[20],4180 nM
same,GI50,[21],1360 nM
same,TGI,[21],2760 nM
same,GI50,[22],1350 nM
same,TGI,[22],2850 nM
same,GI50,[23],1830 nM
same,TGI,[23],3510 nM
same,GI50,[24],1720 nM
same,TGI,[24],3130 nM
same,GI50,[25],1460 nM
same,TGI,[25],2790 nM
same,GI50,[26],1390 nM
same,TGI,[26],2780 nM
same,GI50,[27],1320 nM
same,TGI,[27],2790 nM
same,GI50,[28],442 nM
same,TGI,[28],1530 nM
same,GI50,[29],1580 nM
same,TGI,[29],2990 nM
same,GI50,[30],1720 nM
same,TGI,[30],3110 nM
same,GI50,[31],1570 nM
same,TGI,[31],2960 nM
same,GI50,[32],1610 nM
same,TGI,[32],3120 nM
same,GI50,[33],1720 nM
same,TGI,[33],3190 nM
same,GI50,[34],1600 nM
same,TGI,[34],2970 nM
same,GI50,[35],1860 nM
same,TGI,[35],3640 nM
same,GI50,[36],1920 nM
same,TGI,[36],3460 nM
same,GI50,[37],1170 nM
same,TGI,[37],> 100000 nM
same,GI50,[38],1810 nM
same,TGI,[38],3290 nM
same,GI50,[39],1630 nM
same,TGI,[39],3030 nM
same,GI50,[40],1430 nM
same,TGI,[40],2750 nM
same,GI50,[41],2870 nM
same,TGI,[41],7080 nM
same,GI50,[42],1170 nM
same,TGI,[42],2500 nM
same,GI50,[43],1680 nM
same,TGI,[43],3130 nM
same,GI50,[44],3080 nM
same,TGI,[44],10400 nM
same,GI50,[45],1680 nM
same,TGI,[45],3230 nM
same,GI50,[46],2220 nM
same,TGI,[46],5820 nM
same,GI50,[47],2110 nM
same,TGI,[47],> 100000 nM
same,GI50,[48],1800 nM
same,TGI,[48],3540 nM
same,GI50,[49],2300 nM
same,TGI,[49],3770 nM
same,GI50,[50],2490 nM
same,TGI,[50],> 100000 nM
same,GI50,[51],1750 nM
same,TGI,[51],3220 nM
same,GI50,[52],1840 nM
same,TGI,[52],4520 nM
same,GI50,[53],1700 nM
same,TGI,[53],4110 nM
same,GI50,[54],1570 nM
same,TGI,[54],3010 nM
same,GI50,[55],1680 nM
same,TGI,[55],3160 nM
same,GI50,[56],1300 nM
same,TGI,[56],2950 nM
same,GI50,[57],1730 nM
same,TGI,[57],3140 nM
